According to patent US12478607B2, “Compounds useful for inhibiting BFL1 and their use in therapy” (CHILDREN'S HOSPITAL MEDICAL CENTER, priority 2019, dated 2025):

Experiments:
BCL2A1 (A1) [1] = biological target: T1, BCL2A1 (A1) (Mus musculus (Mouse), UniProt Q07440); experiment: dose-response fluorescence polarization (FP) assay, displacement of FITC-labeled mNOXA peptide; assay type: binding, murine; conditions: 3 μM A1, 375 nM FITC-labeled mNOXA, overnight 20° C., triplicate
Procedure: (§1) These assays were carried out using fluorescently labeled NOXA peptide which binds within the BH3-binding groove. The FP assay measures the tumbling rate of the labeled NOXA peptide as a proxy for inhibition of BH3 binding using a competition-based approach. When NOXA is bound to BCL2A1, its rate of tumbling is low (and FP is high), whereas an effective inhibitor compound will displace NOXA, causing a fast rate of tumbling (and low FP value). The initial single high dose assay was performed with each compound using […] with BCL2A1 and FITC-NOXA, to observe the relative inhibition of the BCL2A1-NOXA interaction. Small molecules that deviated by three or more standard deviations from the control mean towards inhibition of binding were selected for further analysis. These compounds and any that were three standard deviations or more above the thermal shift controls in the DSF assays were tested in an FP dose-response experiment. […] The average thermal shift (Tm shift) in the DSF assay, along with the percentage of bound Noxa peptide from the single high dose FP assay are given below in Table 2 for each of these compounds. The first two compounds in Table 2 are reference compounds.
(§2) Compounds were additionally tested for specificity of binding by displacement of FITC-labeled mouse NOXA (mNoxa; Peptide 2.0) peptide via fluorescence polarization assay (FP). FP assays were performed in two steps: single-point high-concentration compounds and dose response of fluorescence polarization hits. A1 was added at 3 μM to 100 μM of each compound in 20 mM Tris pH 7, 500 mM NaCl, 0.005% Tween-20 buffer. After addition of 375 nM labeled mNOXA, 96-well plates were incubated overnight at 20° C. in the dark to achieve equilibrium before fluorescence polarization was measured with a Biotek Synergy H2. Autofluorescent compounds and fluorescent quenching compounds were corrected via ratiometric correction as described by Shapiro et al., 2009.
Dose response curves were measured by adding 3 μM A1 to a serial two-fold dilution series of each compound ranging from 400 μM to 781 nM in 20 mM Tris pH 7, 500 mM NaCl, 0.005% Tween-20 buffer. Some compounds were further tested to assess the accuracy of these two-fold dilutions with serial 1.33-fold dilutions. A1, compounds, buffer and lastly, 375 nM FITC-labeled mNOXA were added to each well and incubated in the dark at 20° C. overnight to achieve equilibrium, followed by measurement of polarization. All dose responses were performed in triplicate.

BCL2A1 (A1) [2] = biological target: T1, BCL2A1 (A1); experiment: single high-dose fluorescence polarization (FP) assay, BCL2A1-NOXA interaction; assay type: binding, murine; conditions: 100 μM compound, 3 μM A1, 375 nM labeled mNOXA
Procedure: as §1, §2

BCL2A1 (purified A1) = BCL2A1 (purified A1) (Mus musculus (Mouse), UniProt Q07440); experiment: differential scanning fluorimetry (DSF) thermal shift assay; assay type: binding, murine; conditions: 100 μM compound, 4.4 μM A1, triplicate; for ΔTm at 100 µM: read-out: Average Tm Shift
Chain of BCL2A1 (purified A1) (Q07440 whole entry): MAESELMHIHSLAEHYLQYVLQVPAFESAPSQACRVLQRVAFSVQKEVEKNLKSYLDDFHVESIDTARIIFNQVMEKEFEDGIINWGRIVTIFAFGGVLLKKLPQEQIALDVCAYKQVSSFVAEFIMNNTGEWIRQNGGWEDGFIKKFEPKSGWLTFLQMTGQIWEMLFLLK
Excerpt: Thermal shift assays and fluorescence polarization competition assays were used to identify compounds that bind to BCL2A1/BFL1. Compounds were first tested for binding to BCL2A1 using differential scanning fluorimetry (DSF) thermal shift assays. DSF measures the midpoint temperature (Tm) for thermal denaturation of proteins; typically ligand binding stabilizes the protein fold, resulting in an increased Tm. During DSF experiments, all compounds that contributed to an increase in Tm that corresponded to at least three standard deviations from the mean were included in further assays.
100 μM of each compound was applied to purified A1 at 4.4 μM in triplicate. Sypro Orange dye was added at a final dilution of 1:1000 to protein- and compound-containing wells. An Applied Biosystems StepOnePlus was used to perform Differential Scanning Fluorimetry (DSF) by elevating the temperature from 20° C. to 99° C. and measuring fluorescence at every half degree C. Melting temperature was recorded as the maximum of the first derivative, indicating half of the protein population was unfolded.

[3] = tested on: T cells from Bax/Bak-deficient mice (Bax/Bak KO); experiment: in vitro apoptosis assay, Bax/Bak-deficient murine T cells; assay type: cell-based, mouse
Excerpt: (§3) We further tested the biological activity of the compounds using an in vitro apoptosis assay. Primary murine splenocyte cells were used as the model system. Single cell suspensions were generated from the spleens of either wild-type (WT) mice or mice having a genetic “knock-out” of the Bax and Bak genes, resulting in Bax/Bak deficient mice (Bax/Bak KO) which lack the core machinery of the intrinsic apoptotic pathway. Mice deficient in Bax/Bak are unable to undergo intrinsic apoptosis due to the lack of the pro-apoptotic Bax and Bak proteins in the pathway.
(§4) Purified cells were cultured on anti-CD3 coated (3 μg/mL, coated overnight, Biolegend, San Diego, CA) six-well plates in the presence of soluble anti-CD28 (2 μg/mL, Bio X Cell, West Lebanon, NH) and IL-2 (10 ng/mL, R&D Systems, Inc., Minneapolis, MN) in RPMI media (Life Technologies, Carlsbad, CA) for 24 hours at 37° C. Cells were then washed and cultured again in IL-2 (10 ng/mL) for 24 hours at 37° C. Cells were harvested and cultured for 24 hours on anti-CD3 coated 96-well plates at 500,000 cells per well with 2 μg/mL soluble anti-CD28, 10 ng/mL IL-2, 0.125 μg purified anti-mouse FasL (Biolegend, San Diego, CA), and varying concentrations of inhibitor compounds. Cells were then harvested and live and dead cells enumerated by trypan blue staining using the TC20 automated cell counter (Bio-Rad Laboratories, Des Plaines, IL).

[4] = tested on: wild-type activated primary murine T cells (splenocytes); experiment: in vitro apoptosis assay, wild-type activated primary murine T cells; assay type: cell-based; conditions: Mus musculus, T-cell, 24 hours, trypan blue live/dead count
Excerpt: as §3, §4

T1 sequence (Q07440 whole entry): as above

| Compound | IC50 (BCL2A1 (A1) [1]) [µM] | % Bound Noxa (from high-dose FP) (BCL2A1 (A1) [2]) [%] | ΔTm at 100 µM (BCL2A1 (purified A1)) [°C] | Average Tm Shift (BCL2A1 (purified A1)) [°C] | EC50 fold higher in Bax/Bak-deficient cells than in wild-type cells ([3]; Bax/Bak-deficient versus wild-type T cells) | EC50 ([3]; Mus musculus, T-cell, Bax/Bak-deficient T cells, 24 hours, trypan blue live/dead count, read-out: EC50 of cell death) [µM] | EC50 [4] [µM] |
| --- | --- | --- | --- | --- | --- | --- | --- |
| CCN(CCNc1ccc(C)c2sc3ccccc3c(=O)c12)CC(C)(C)O [Compound 1.003] | 103 | 51.13 | -1.43 |  |  |  |  |
| Cc1ccc(NC(=O)c2cc3ccccc3c(N=Nc3cc(S(=O)(=O)O)ccc3O)c2O)c(C)c1 [REF 2, reference compound] |  | 1.2 |  | −30.75 |  |  |  |
| CCN(CC)CCNc1ccc(C)c2sc3ccccc3c(=O)c12 [Compound 1.002] | 70.1 | 4.5 | 38.8 |  |  |  |  |
| Cc1ccc(NCCNCC(O)CO)c2c(=O)c3ccccc3sc12 (stereo not shown) [Compound 1.004] | 300 |  | -0.6 |  |  |  |  |
| CCN(CC)CC(O)CNc1ccc(C)c2sc3ccccc3c(=O)c12 (stereo not shown) [Compound 1.001] | 49.1 | 41.48 | 0.49 |  | about 10 fold | 20 to 30 | ~3 |
| O=C(COc1c(Cl)cc(Cl)c2ccccc12)NC1c2ccccc2Oc2ccccc21 [Compound 1.006] | 48.5 | 70.39 | 19.2 |  |  |  |  |
| Cc1cc(N=Nc2ccc(N=Nc3c(O)c(S(=O)(=O)O)cc4cc(S(=O)(=O)O)ccc34)cc2C)ccc1N=Nc1ccc2cc(S(=O)(=O)O)cc(S(=O)(=O)O)c2c1 [REF 1, reference compound] |  |  |  | 1.92 |  |  |  |
| Cc1ccc(NCCNCC(C)(C)O)c2c(=O)c3ccccc3sc12 [Compound 1.005] | 333 |  | -0.85 |  |  |  |  |
